Source: US7598234B2, “Steroid derived antibiotics” (Brigham Young University, priority 1998, dated 2009)
≈ marks a conversion by molar mass, not a printed value.

Assays:
[1] = tested on: E. coli (ATCC 10798); test: MIC and MBC measurement with E. coli (ATCC 10798); format: cell-based, Escherichia coli; conditions: Table 1; E. coli (ATCC 10798)
Method in brief: (§1)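 In sensitization runs, erythromycin or novobiocin followed the cholic acid derivative by 15 minutes in TSB; cultures then sat at 37° C. for 24 hours before A760 reading. Clear samples were subcultured to TSA for CFU counts relative to the inoculum.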

[2] = tested on: E. coli (ATCC 10798); test: Sensitization to novobiocin (concentration lowering the MIC of novobiocin), E. coli (ATCC 10798); format: cell-based, Escherichia coli; conditions: Table 3, E. coli (ATCC 10798); for MBC (with novobiocin): novobiocin sensitization
[3] = tested on: Pseudomonas aeruginosa (ATCC 27853); test: MIC and MBC measurement with Pseudomonas aeruginosa (ATCC 27853); format: cell-based
Method in brief: as §1

[4] = tested on: Pseudomonas aeruginosa (ATCC 27853); test: Sensitization to erythromycin, Pseudomonas aeruginosa (ATCC 27853); format: cell-based; conditions: for MIC: concentration required to lower the MIC of erythromycin from 240 μg/mL to 5 μg/mL / MBC (with erythromycin): Table 7, P. aureginosa (ATCC 27853); for MBC (with erythromycin): erythromycin sensitization; for FIC / concentration required to inhibit bacterial growth with antibiotic: Table 11, Pseudomonas aeruginosa ATCC 27853; for FIC: erythromycin (by order); for concentration required to inhibit bacterial growth with antibiotic: erythromycin (by order) at 0.5, 1.0 or 3.0 μg/mL
Method in brief: (§2)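 Tube checkerboard in TSB: cholic acid derivatives added, then erythromycin or novobiocin 15 min later, antibiotics at 0.5, 1.0 or 3.0 μg/mL; stationary 37 °C, 24 h. Turbidity read at 760 nm; clear samples subcultured on TSA for CFU counts versus inoculum; FIC derived for synergy.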

[5] = tested on: Pseudomonas aeruginosa (ATCC 27853); test: Sensitization to novobiocin, Pseudomonas aeruginosa (ATCC 27853); format: cell-based; conditions: for MIC: concentration required to lower the MIC of novobiocin from >500 μg/mL to 1 μg/mL: Table 8, P. aureginosa (ATCC 27853); for FIC / concentration required to inhibit bacterial growth with antibiotic: Table 12, Pseudomonas aeruginosa ATCC 27853; for FIC: novobiocin (by order); for concentration required to inhibit bacterial growth with antibiotic: novobiocin (by order) at 0.5, 1.0 or 3.0 μg/mL
Method in brief: as §2

[6] = tested on: Salmonella typhimurium ATCC 14028; test: MIC and MBC measurement with Salmonella typhimurium ATCC 14028; format: cell-based; conditions: Table 10
Method in brief: as §1

[7] = tested on: Enterococcus faecalis ATCC 29212; test: MIC and MBC measurement with Enterococcus faecalis ATCC 29212; format: cell-based; conditions: Table 10
Source text: (§3) General: Microorganisms. Reference strains were purchased from the American Type Culture Collection (Rockville, Md.) or Bactrol disks from Difeo Laboratories (Detroit, Mich.). The following specific ATCC strains were used: 10798 Escherichia coli, 25922 Escherichia coli, 13883 Klebsiella pneumoniae, 27853 Pseudomonas aeruginosa, 14028 Salmonella typhimurium, 29212 Enterococcus faecalis, 25923 Staphylococcus aureus, 19615 Streptococcus pyogenes, and 90028 Candida albicans. Bacterial strains were maintained on Mueller-Hinton agar plates, and Candida albicans was maintained on Sabouraud Dextrose agar plates.
(§4) Tryptic soy broth (TSB) was made by dissolving 27.5 grams of tryptic soy broth without dextrose (DIFCO Laboratories) in 1 liter of deionized water and sterilizing at 121° C. for 15 minutes. Solid agar (TSA) plates were made by dissolving 6.4 grams of tryptic soy broth and 12 grams of agar (purified grade, Fischer Scientific) in 800 mL of deionized water and sterilizing at 121° C. for 20 minutes. Aliquots (20 mL) of the homogeneous solution were then poured in sterile plastic petri dishes (100×15 mm, Fisher Scientific). Solutions of compounds were made by dissolving the HCl salt of the respective compound into an appropriate amount of deionized and sterilized water followed by microfiltration.
(§5) Aliquots of 1 mL of the suspension were added to test tubes containing 1 mL TSB and incrementally varied concentrations of cholic acid derivatives and/or erythromycin or novobiocin. In the sensitization experiments, erythromycin or novobiocin were added 15 minutes later than the cholic acid derivatives. The samples were subjected to stationary incubation at 37° C. for 24 hours. Sample turbidity was determined by measuring absorption at 760 nm (HP 8453 UV-Visible Chemstation, Hewlett Packard). Additionally, an alliquot from each of the samples showing no measurable turbidity was subcultured on TSA plates (alliquots were diluted to provide fewer than 300 CFU). Colonies that grew on the subculture after overnight incubation were counted and the number of CFU/mL in the samples were calculated. The calculated values were compared to the number of CFU/mL in the original inoculum.

[8] = tested on: Streptococcus pyrogenes ATCC 19615; test: MIC and MBC measurement with Streptococcus pyogenes ATCC 19615; format: cell-based; conditions: Table 10
Source text: as §3, §4, §5

[9] = tested on: Klebsiella pneumonia ATCC 13883; test: Growth inhibition and FIC with novobiocin, Klebsiella pneumoniae ATCC 13883; format: cell-based; conditions: Table 12, novobiocin (by order) at 0.5, 1.0 or 3.0 μg/mL
Method: (§6) Alternatively, “fractional inhibitory concentration (FIC)” is also useful for determination of synergy between the compounds of the invention, or the compounds in combination with known antibiotics. FICs can be performed by checkerboard titrations of compounds in one dimension of a microtiter plate, and of antibiotics in the other dimension, for example. The FIC is calculated by looking at the impact of one antibiotic on the MIC of the other and vice versa. […] Preferably, an FIC of less than 0.5 is obtained for synergism. As used herein, FIC can be determined as follows:
as §5
(§7) To measure permeabilization, the FIC values for compounds 1, 2, 5, 106, 10, 112, 133, and 134 with erythromycin, novobiocin, and rifampicin were determined. Concentrations of 0.5, 1.0 or 3.0 μg/mL of these antibiotics were used, and the concentrations of the cholic acid derivatives required to inhibit bacterial growth of Gram-negative strains were determined.

[10] = tested on: Salmonella typhimurium ATCC 14028; test: Growth inhibition and FIC with novobiocin, Salmonella typhimurium ATCC 14028; format: cell-based; conditions: for FIC: Table 12, novobiocin (by order); for concentration required to inhibit bacterial growth with antibiotic: Table 12, novobiocin (by order) at 0.5, 1.0 or 3.0 μg/mL
Method: as §6, §5, §7

[11] = tested on: Escherichia coli ATCC 25922; test: Growth inhibition and FIC with rifampicin, Escherichia coli ATCC 25922; format: cell-based; conditions: for FIC: Table 13, rifampicin (by order); for concentration required to inhibit bacterial growth with antibiotic: Table 13, rifampicin (by order) at 0.5, 1.0 or 3.0 μg/mL
Method: as §6, §5, §7

[12] = tested on: Klebsiella pneumonia ATCC 13883; test: Growth inhibition and FIC with rifampicin, Klebsiella pneumoniae ATCC 13883; format: cell-based; conditions: for FIC: Table 13, rifampicin (by order); for concentration required to inhibit bacterial growth with antibiotic: Table 13, rifampicin (by order) at 0.5, 1.0 or 3.0 μg/mL
Method: as §6, §5, §7

[13] = tested on: Pseudomonas aeruginosa ATCC 27853; test: Growth inhibition and FIC with rifampicin, Pseudomonas aeruginosa ATCC 27853; format: cell-based; conditions: Table 13, Pseudomonas aeruginosa ATCC 27853^b; for FIC: rifampicin (by order); for concentration required to inhibit bacterial growth with antibiotic: rifampicin (by order) at 0.5, 1.0 or 3.0 μg/mL
Method: as §6, §5, §7

[14] = tested on: Salmonella typhimurium ATCC 14028; test: Growth inhibition and FIC with rifampicin, Salmonella typhimurium ATCC 14028; format: cell-based; conditions: Table 13, Salmonella typhimurium ATCC 14028^b; for FIC: rifampicin (by order); for concentration required to inhibit bacterial growth with antibiotic: rifampicin (by order) at 0.5, 1.0 or 3.0 μg/mL
Method: as §6, §5, §7

[15] = Table 6, P. aureginosa (ATCC 27853)
[16] = Table 10, Pseudomonas aeruginosa ATCC 27853

Row | SMILES | MBC [1] [µg/mL] | MIC [1] [µg/mL] | MIC: concentration required to lower the MIC of novobiocin from >500 μg/mL to 1 μg/mL [2] [µg/mL] | MBC (with novobiocin) [2] [µg/mL] | MBC [3, 15] [µg/mL] | MIC [3, 15] [µg/mL] | MBC [3, 16] [µg/mL] | MIC [3, 16] [µg/mL] | MIC: concentration required to lower the MIC of erythromycin from 240 μg/mL to 5 μg/mL [4] [µg/mL] | MBC (with erythromycin) [4] [µg/mL] | FIC [4] | concentration required to inhibit bacterial growth with antibiotic [4] [µg/mL] | MIC: concentration required to lower the MIC of novobiocin from >500 μg/mL to 1 μg/mL [5] [µg/mL] | FIC [5] | concentration required to inhibit bacterial growth with antibiotic [5] [µg/mL] | MBC [6] [µg/mL] | MIC [6] [µg/mL] | MBC [7] [µg/mL] | MIC [7] [µg/mL] | MBC [8] [µg/mL] | other results
1 | C[C@H](CCCN(C)Cc1ccccc1)[C@H]1CC[C@H]2[C@@H]3[C@H](OCCN)C[C@@H]4C[C@H](OCCN)CC[C@]4(C)[C@H]3C[C@H](OCCN)[C@]12C [Compound 1] | 34 (≈ 54.2 µM) | 20 (≈ 31.9 µM) | 20 | 34 | >50 | 15 (≈ 23.9 µM) | 38 (≈ 60.6 µM) | 26 (≈ 41.5 µM) | 8 | 45 | 0.29 | 6.6 | 6 | 0.16 | 3.9 | >25 | 21 (≈ 33.5 µM) | 50 (≈ 79.7 µM) | 4.9 (≈ 7.82 µM) | 4.4 (≈ 7.02 µM) | MIC [8]: 3.0 µg/mL (≈ 4.78 µM); concentration required to inhibit bacterial growth with antibiotic [9]: 4.7 µg/mL; FIC [10]: 0.22; concentration required to inhibit bacterial growth with antibiotic [10]: 4.4 µg/mL; FIC [11]: 0.099; concentration required to inhibit bacterial growth with antibiotic [11]: 0.74 µg/mL; FIC [12]: 0.043; concentration required to inhibit bacterial growth with antibiotic [12]: 0.40 µg/mL; FIC [13]: 0.096; concentration required to inhibit bacterial growth with antibiotic [13]: 1.5 µg/mL; FIC [14]: 0.089; concentration required to inhibit bacterial growth with antibiotic [14]: 0.84 µg/mL
2 | C[C@H](CCCN(C)Cc1ccccc1)[C@H]1CC[C@H]2[C@@H]3[C@H](OCCCN)C[C@@H]4C[C@H](OCCCN)CC[C@]4(C)[C@H]3C[C@H](OCCCN)[C@]12C [Compound 2] | 16 (≈ 23.9 µM) | 7 (≈ 10.5 µM) | 7 | 16 | 40 (≈ 59.8 µM) | 9 (≈ 13.5 µM) | >17 | 11 (≈ 16.4 µM) | 4 | 25 | 0.25 | 2.4 | 4 | 0.27 | 2.9 | 16 (≈ 23.9 µM) | 13 (≈ 19.4 µM) | 19 (≈ 28.4 µM) | 3.4 (≈ 5.08 µM) | 2.3 (≈ 3.44 µM) | MIC [8]: 2.0 µg/mL (≈ 2.99 µM); concentration required to inhibit bacterial growth with antibiotic [9]: 0.49 µg/mL; FIC [10]: 0.36; concentration required to inhibit bacterial growth with antibiotic [10]: 4.5 µg/mL; FIC [11]: 0.22; concentration required to inhibit bacterial growth with antibiotic [11]: 0.80 µg/mL; FIC [12]: 0.035; concentration required to inhibit bacterial growth with antibiotic [12]: 0.12 µg/mL; FIC [13]: 0.086; concentration required to inhibit bacterial growth with antibiotic [13]: 0.50 µg/mL; FIC [14]: 0.079; concentration required to inhibit bacterial growth with antibiotic [14]: 0.39 µg/mL
